Experimental data reported in patent publication US20170129916A1, “NOVEL BETULINIC PROLINE IMIDAZOLE DERIVATIVES AS HIV INHIBITORS” (HETERO RESEARCH FOUNDATION, priority 2014, published 2017).

Tests used:
[1] = test system: HIV-1 strains, for e.g., 92HT599; experiment: Antiviral activity: p24 estimation in MT-2 cells infected with HIV-1; type: cell-based; details: Human immunodeficiency virus 1, MT2, MT-2 cells infected with HIV-1, p24, ~96 hours; for IC50: read-out: Antiviral activity IC50 (nM) Efficacy IC50
In short: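 MT-2 cells infected with HIV-1 (e.g. 92HT599), plated at 30,000 cells/well with compound (DMSO ≤1%) and incubated ~96 h. Supernatant p24 quantified by kit; percent inhibition relative to vehicle controls.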

[2] = in vitro
Description: On day 1 calculate the number of cells required for the assay and seed 3×10^4 cells in 200 μl per well. Weigh the compound and dissolve it in DMSO to get 10 mM stock which is further diluted to 3 mM and 1 mM. The drugs from these stocks were added to plate to get final concentration of 100 μM, 30 μM and 10 μM. […] Incubate for 4 days in 5% CO2 incubator at 37° C. On day 4, 100 μl of medium was removed from each well without disturbing the cells. Add 10 μl of MTT reagent and incubate for 4 hours at 5% CO2 incubator at 37° C. for formation of crystals. Add 200 μl of 0.1N acidic isopropanol to dissolve the crystals and read the plate at 590 nm.

[3] = Single dose oral pharmacokinetic study; type: in vivo; details: mouse, mice, 30 mg/kg, plasma; for AUC(0-t): read-out: Mice oral PK @30 mg/kg AUC 0-t; for Cmax: read-out: Mice oral PK @30 mg/kg Cmax
In short: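 Rats or mice received 30 mg/kg orally at 10 ml/kg dose volume. Retro-orbital blood was taken into K3 EDTA at defined intervals under light ether anesthesia and centrifuged to plasma. Plasma levels were measured by LC-MS-MS.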

## C=C(C)[C@@H]1CC[C@]2(C(=O)N3CCC[C@H]3c3ncc(-c4ccc(C)c(F)c4)[nH]3)CC[C@]3(C)[C@H](CC[C@@H]4[C@@]5(C)CC[C@H](OC(=O)[C@H]6C[C@@H](C(=O)O)C6(C)C)C(C)(C)[C@@H]5CC[C@]43C)[C@@H]12 [Compound 2, (1R,3S)-3-((((1R,3aS,5aR,5 bR,7aR,9S,11aR,11bR,13aR,13bR)-3a-((S)-2-(5-(3-fluoro-4-methylphenyl)-1H-imidazol-2-yl)pyrrolidine-1-carbonyl)-5a,5b,8,8,11a-pentamethyl-1-(prop-1-en-2-yl)icosahydro-1H-cyclopenta[a]chrysen-9-yl)oxy)carbonyl)-2,2-dimethylcyclobutane-1-carboxylic acid]
[1]
  inhibition at 0.1 µM: 0%
  inhibition at 1 µM: 97%
[2]
  viability at 4 days, 10 μM: 64%
  viability at 4 days, 30 μM: 31%
  viability at 4 days, 100 μM: 5%

## C=C(C)[C@@H]1CC[C@]2(C(=O)N3CCC[C@H]3c3ncc(-c4ccc(OCC)cc4)[nH]3)CC[C@]3(C)[C@H](CC[C@@H]4[C@@]5(C)CC[C@H](OC(=O)[C@H]6C[C@@H](C(=O)O)C6(C)C)C(C)(C)[C@@H]5CC[C@]43C)[C@@H]12 [Compound 5, (1R,3S)-3-((((1R,3aS,5aR,5bR,7aR,9S,11aR,11bR,13aR,13bR)-3a-((S)-2-(5-(4-ethoxyphenyl)-1H-imidazol-2-yl)pyrrolidine-1-carbonyl)-5a,5b,8,8,11a-pentamethyl-1-(prop-1-en-2-yl)icosahydro-1H-cyclopenta[a]chrysen-9-yl)oxy)carbonyl)-2,2-dimethylcyclobutane-1-carboxylic acid]
[1]
  inhibition at 0.1 µM: 0%
  inhibition at 1 µM: 100%
[2]
  viability at 4 days, 10 μM: 100%
  viability at 4 days, 30 μM: 100%
  viability at 4 days, 100 μM: 98%

## C=C(C)[C@@H]1CC[C@]2(C(=O)N3CCC[C@H]3c3nc(-c4ccc(OC)c(F)c4)c[nH]3)CC[C@]3(C)[C@H](CC[C@@H]4[C@@]5(C)CC[C@H](OC(=O)[C@H]6C[C@@H](C(=O)O)C6(C)C)C(C)(C)[C@@H]5CC[C@]43C)[C@@H]12 [Compound 25, (1R,3S)-3-((((1R,3aS,5aR,5bR,7aR,9S,11aR,11bR,13aR,13bR)-3a-((S)-2-(4-(3-fluoro-4-methoxyphenyl)-1H-imidazol-2-yl)pyrrolidine-1-carbonyl)-5a,5b,8,8,11a-pentamethyl-1-(prop-1-en-2-yl)icosahydro-1H-cyclopenta[a]chrysen-9-yl)oxy)carbonyl)-2,2-dimethylcyclobutane-1-carboxylic acid]
[1]
  inhibition at 0.1 µM: 89%
  inhibition at 1 µM: 99%
[2]
  viability at 4 days, 10 μM: 65%
  viability at 4 days, 30 μM: 32%
  viability at 4 days, 100 μM: 11%

## C=C(C)[C@@H]1CC[C@]2(C(=O)N3CCC[C@H]3c3ncc(-c4ccc(C)c(F)c4)[nH]3)CC[C@]3(C)[C@H](CC[C@@H]4[C@@]5(C)CC[C@H](OC(=O)CC(C)(C)C(=O)O)C(C)(C)[C@@H]5CC[C@]43C)[C@@H]12 [Compound 40]
[1]
  inhibition at 0.1 µM: 29%
  inhibition at 1 µM: 99%
[2]
  viability at 4 days, 10 μM: 80%
  viability at 4 days, 30 μM: 48%
  viability at 4 days, 100 μM: 25%

## CC(C)(CC(=O)O[C@H]1CC[C@]2(C)[C@H]3CC[C@@H]4[C@H]5[C@H](C(C)(O)CO)CC[C@]5(C(=O)N5CCC[C@@H]5c5nc(-c6ccccc6)no5)CC[C@@]4(C)[C@]3(C)CC[C@H]2C1(C)C)C(=O)O (stereo partly drawn) [Compound 42, 4-(((1R,3aS,5aR,5bR,7aR,9S,11aR,11bR,13aR,13bS)-1-(1,2-dihydroxypropan-2-yl)-5a,5b,8,8,11a-pentamethyl-3a-((R)-2-(3-phenyl-1,2,4-oxadiazol-5-yl)pyrrolidine-1-carbonyl)icosahydro-1H-cyclopenta[a]chrysen-9-yl)oxy)-2,2-dimethyl-4-oxobutanoic acid]
[1]
  inhibition at 0.1 µM: 63%
  inhibition at 1 µM: 73%
[2]
  viability at 4 days, 0.1 nM: 94%
  viability at 4 days, 1 nM: 94%

## CC(C)(CC(=O)O)CC(=O)O[C@H]1CC[C@]2(C)[C@H]3CC[C@@H]4[C@H]5[C@H](C6(C)CC6)CC[C@]5(C(=O)N5CCC[C@H]5c5ncc(-c6ccccn6)[nH]5)CC[C@@]4(C)[C@]3(C)CC[C@H]2C1(C)C [Compound 63, 3,3-dimethyl-5-oxo-5-(((1R,3aS,5aR,5bR,7aR,9S,11aR,11bR,13aR,13bR)-5a,5b,8,8,11a-pentamethyl-1-(1-methylcyclopropyl)-3a-((S)-2-(5-(pyridin-2-yl)-1H-imidazol-2-yl)pyrrolidine-1-carbonyl)icosahydro-1H-cyclopenta[a]chrysen-9-yl)oxy)pentanoic acid]
[1]
  IC50: 3.6 nM
[3]
  AUC(0-t): 120 µg·h/mL
  Cmax: 4470 ng/mL

## CC(C)(CC(=O)O)CC(=O)O[C@H]1CC[C@]2(C)[C@H]3CC[C@@H]4[C@H]5[C@H](C6(C)CC6)CC[C@]5(C(=O)N5CCC[C@H]5c5ncc(-c6cccc(F)c6)[nH]5)CC[C@@]4(C)[C@]3(C)CC[C@H]2C1(C)C [Compound 64, 5-(((1R,3aS,5aR,5bR,7aR,9S,11aR,11bR,13aR,13bR)-3a-((S)-2-(5-(3-fluorophenyl)-1H-imidazol-2-yl)pyrrolidine-1-carbonyl)-5a,5b,8,8,11a-pentamethyl-1-(1-methylcyclopropyl)icosahydro-1H-cyclopenta[a]chrysen-9-yl)oxy)-3,3-dimethyl-5-oxopentanoic acid]
[1]
  IC50: 14.6 nM
[3]
  AUC(0-t): 105 µg·h/mL
  Cmax: 5250 ng/mL

## CC(C)(CC(=O)O[C@H]1CC[C@]2(C)[C@H]3CC[C@@H]4[C@H]5[C@H](C6(C)CC6)CC[C@]5(C(=O)N5CCC[C@H]5c5ncc(-c6cccc(F)c6)[nH]5)CC[C@@]4(C)[C@]3(C)CC[C@H]2C1(C)C)C(=O)O [Compound 65, 4-(((1R,3aS,5aR,5bR,7aR,9S,11aR,11bR,13aR,13bR)-3a-((S)-2-(5-(3-fluorophenyl)-1H-imidazol-2-yl)pyrrolidine-1-carbonyl)-5a,5b,8,8,11a-pentamethyl-1-(1-methylcyclopropyl)icosahydro-1H-cyclopenta[a]chrysen-9-yl)oxy)-2,2-dimethyl-4-oxobutanoic acid]
[1]
  IC50: 15.7 nM
[3]
  AUC(0-t): 203 µg·h/mL
  Cmax: 13300 ng/mL

## COCCOc1ccc(-c2cnc([C@@H]3CCCN3C(=O)[C@]34CC[C@@H](C5(C)CC5)[C@@H]3[C@H]3CC[C@@H]5[C@@]6(C)CC[C@H](OC(=O)CC(C)(C)C(=O)O)C(C)(C)[C@@H]6CC[C@@]5(C)[C@]3(C)CC4)[nH]2)cc1 [Compound 66]
[1]
  IC50: 0.73 nM
[3]
  AUC(0-t): 62.1 µg·h/mL
  Cmax: 6590 ng/mL

## COCCO[C@@H]1C[C@@H](c2nc(-c3ccc(F)cc3)c[nH]2)N(C(=O)[C@]23CC[C@@H](C4(C)CC4)[C@@H]2[C@H]2CC[C@@H]4[C@@]5(C)CC[C@H](OC(=O)CC(C)(C)C(=O)O)C(C)(C)[C@@H]5CC[C@@]4(C)[C@]2(C)CC3)C1 [Compound 67, 4-(((1R,3aS,5aR,5bR,7aR,9S,11aR,11bR,13aR,13bR)-3a-((2S,4R)-2-(4-(4-fluorophenyl)-1H-imidazol-2-yl)-4-(2-methoxyethoxy)pyrrolidine-1-carbonyl)-5a,5b,8,8,11a-pentamethyl-1-(1-methylcyclopropyl)icosahydro-1H-cyclopenta[a]chrysen-9-yl)oxy)-2,2-dimethyl-4-oxobutanoic acid]
[1]
  IC50: 0.44 nM
[3]
  AUC(0-t): 247 µg·h/mL
  Cmax: 12300 ng/mL

## CC(C)(CC(=O)O[C@H]1CC[C@]2(C)[C@H]3CC[C@@H]4[C@H]5[C@H](C6(C)CC6)CC[C@]5(C(=O)N5CCC(c6ncc(-c7ccccc7)[nH]6)CC5)CC[C@@]4(C)[C@]3(C)CC[C@H]2C1(C)C)C(=O)O [Compound 68, 2,2-dimethyl-4-oxo-4-(((1R,3aS,5aR,5bR,7aR,9S,11aR,11bR,13aR,13bR)-5a,5b,8,8,11a-pentamethyl-1-(1-methylcyclopropyl)-3a-(4-(5-phenyl-1H-imidazol-2-yl)piperidine-1-carbonyl)icosahydro-1H-cyclopenta[a]chrysen-9-yl)oxy)butanoic acid]
[1]
  IC50: 12.8 nM
[3]
  AUC(0-t): 23.5 µg·h/mL
  Cmax: 2020 ng/mL

## CC(C)(CC(=O)O)CC(=O)O[C@H]1CC[C@]2(C)[C@H]3CC[C@@H]4[C@H]5[C@H](C6(C)CC6)CC[C@]5(C(=O)N5CCC[C@H]5c5ncc(-c6ccc(F)cc6)[nH]5)CC[C@@]4(C)[C@]3(C)CC[C@H]2C1(C)C [Compound 70, 5-(((1R,3aS,5aR,5bR,7aR,9S,11aR,11bR,13aR,13bR)-3a-((S)-2-(5-(4-fluorophenyl)-1H-imidazol-2-yl)pyrrolidine-1-carbonyl)-5a,5b,8,8,11a-pentamethyl-1-(1-methylcyclopropyl)icosahydro-1H-cyclopenta[a]chrysen-9-yl)oxy)-3,3-dimethyl-5-oxopentanoic acid]
[1]
  inhibition at 0.1 µM: 84%
  inhibition at 1 µM: 99%
[3]
  AUC(0-t): 172 µg·h/mL
  Cmax: 10000 ng/mL
